Laboratory results taken from PMC8100071, “Lipid binding by the N-terminal motif mediates plasma membrane localization of Bordetella effector protein BteA” (The Journal of Biological Chemistry, 2021).
Like-named read-outs stand apart in the source and are kept apart here.

Molecular target: T1, LRT (GST-tagged N-terminal LRT domain of BteA) (Bordetella pertussis, UniProt Q7VSD3)
T1 construct: gene BP0500; N-terminal lipid raft targeting (membrane localization) domain, aa 1-130 of 656; N-terminal GST tag (pGEX-6P1) kept; E. coli Rosetta 2
T1 sequence (Q7VSD3 entry or part of it): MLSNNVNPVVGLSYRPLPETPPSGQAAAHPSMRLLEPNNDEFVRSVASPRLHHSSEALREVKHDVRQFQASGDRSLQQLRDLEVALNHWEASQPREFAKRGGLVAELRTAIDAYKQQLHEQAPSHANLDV
Experiment: SPR steady state, immobilized liposomes
Assay type: binding

Structure (SMILES): CCCCCCCC/C=C\CCCCCCCC(=O)O[C@H](COC(=O)CCCCCCCCCCCCCCC)COP(=O)(O)O [PA]
- Kd (read-out: KD (apparent), PA/PC 5:95 (mol) liposomes, 100 nm, 50 mM Tris-HCl pH 7.4, 150 mM NaCl, 0.005% Tween-20, 25 °C, Kd in terms of protein concentration): 492 ± 86 nM

Structure (SMILES): CCCCCCCC/C=C\CCCCCCCC(=O)OC[C@H](COP(=O)(O)O[C@@H]1[C@H](O)[C@H](O)[C@@H](OP(=O)(O)O)[C@H](OP(=O)(O)O)[C@H]1O)OC(=O)CCCCCCC/C=C\CCCCCCCC [PIP2]
- Kd: 446 ± 65 nM

Structure (SMILES): CCCCCCCC/C=C\CCCCCCCC(=O)O[C@H](COC(=O)CCCCCCCCCCCCCCC)COP(=O)(O)OC[C@H](N)C(=O)O [PS]
- Kd (read-out: KD (apparent), PS/PC 20:80 (mol) liposomes, 100 nm, 50 mM Tris-HCl pH 7.4, 150 mM NaCl, 0.005% Tween-20, 25 °C, Kd in terms of protein concentration, unit nM shared in the sentence, abstract gives ∼1.2 μM): 1230 ± 245 nM
